Reference: patent publication US9745288B2, “Compounds and methods for treating cancer by inhibiting the urokinase receptor” (Indiana University Research and Technology Corporation, priority 2011, dated 2017)
Entries after “also recorded” stand apart in the source; their conditions may differ.

How the values were obtained:
[1] = system: MDA-MB-231 cells; experiment: Invasion assay (Boyden chamber, Matrigel); format: cell-based, human; conditions: Homo sapiens
Protocol: Invasion and Migration Assays. These assays were performed using BD BioCoat Matrigel Invasion Chamber (Cat. 354480, BD Biosciences, Bedford, Mass.). The undersurface of the inserts was coated with 30 μg/mL of fibronectin (Sigma, F2006) in PBS at 4° C. overnight. The inserts were washed with PBS once. Then, 0.5 mL of serum-free medium was separately added to the upper and lower chambers to equilibrate the Matrigel invasion chambers at 37° C., 5% CO2 for 2 hours. After starvated with serumfree DMEM or 4 hours, subconfluent MDA-MB-231 cells were trypsinized and resuspended in 0.1% FBS DMEM. 5×10^4 cells in 500 μL of 0.1% FBS DMEM containing various compounds or 1.0% DMSO (as control) were added to the upper chambers. 500 μL of 10% FBS DMEM containing the same concentration of the same compound or DMSO were added to the lower chambers. We incubated the invasion chambers for 3 hours at 37° C., 5% CO2. Non-invaded cells were removed from the upper chamber with a cotton swab. The invaded cells were fixed with 100% methanol and then stained with Hematoxylin Stain Harris Modified Method (Fisher, SH30-500D). The filters were washed with water 3 times. Filters were air dried and the invaded cells were counted in ten randomly selected microscopic fields (×200 magnification). The experiment was performed in triplicate per group and shown by mean±SE.
Whether the two active compounds affected invasion, adhesion and migration in cell culture in a concentration-dependent study was tested (FIGS. 2A, 2B). For invasion, the Transwell (or Boyden) chamber assay was used.^28 The assay uses a chamber with two compartments that are separated by a microporous membrane known as Matrigel consisting of components of the ECM such as collagen, laminin and fibronectin.^28
Invasive tumor cells degrade the Matrigel and migrate through the membrane to the lower compartment. […] FIGS. 2A and 2B show the effect of representative presently disclosed compounds on MDA-MB-231 metastasis. Percent inhibition of invasion, migration, and adhesion of MDA-MB-231 by compounds that bind to uPAR.

[2] = system: phospho-p44/42 MAPK; experiment: Immunoblot of MAPK phosphorylation in MDA-MB-231 cells; format: cell-based, human; conditions: 100 μM, 30 minutes
Protocol: Immunoblots. MDA-MB-231 cells treated with 100 μM of compound(s)/1% DMSO for 30 min. Harvested cell lysates in RIPA buffer supplemented with protease inhibitors and phosphatase inhibitors. Under non-reducing condition equal amounts of protein were loaded per lane and separated in 4-12% NuPAGE gel (Invitrogen) at 200 V for 60 minutes, then transferred to Nitrocellulose membrane at 30 V for one hour using XCell II blot module. […] Secondary antibody: goat anti-rabbit IgG HRP 1:3000 in 5% non-fat milk-TBST at room for 1 hour. The protein bands were visualized using Immobilon Western Chemiluminescent HRP Substrate (WBKLS0100, Millipore, Billerica, Mass.). Fibronectin (Sigma, F2006) […] coated in 6-well plates overnight. MDA-MB-231serum-starved for 4 hours and then seeded in FN coated 6-well plates and treated with 5,10, 20 and 40 μM compound(s)/1% DMSO for 30 min, cells were lysated in RIPA buffer supplemented with protease inhibitors and phosphatase inhibitors. Then IB with phospho-p44/42 MAPK (Thr202/Tyr204), p44/42 MAPK; phospho-FAK (Tyr397), FAK; phospho-Src family (Tyr416), Src, respectively.
A concentration-dependent study was subsequently carried out for IPR-1 (FIG. 6B). […] The effect of the compound also was studied in two other signaling pathways including FAK and Src. FAK is constitutively associated with β-integrin subunits of integrin receptors.

[3] = biological target: T1, hERG channel (Homo sapiens, UniProt Q12809); experiment: hERG fluorescence polarization Predictor Assay; format: binding; parameters: dose or concentration left out as unconfirmed
T1 construct: purchased Invitrogen (Carlsbad, Calif.)
Source text: Inhibition of the hERG channel is undesirable. Checking for hERG blockage is an integral step in the drug discovery cycle. The presently disclosed method is well-suited for high-throughput measurements based on fluorescence polarization (FP) as implemented in the Predictor Assay by Invitrogen (Carlsbad, Calif.). This assay is based on the principle that a fluorescent tracer upon binding to the hERG channel will induce an increase in the FP signal that will diminish when an inhibitor displaces the interaction between the tracer and the hERG channel.
FP measurements for IPR-1 and IPR-69 were performed using an EnVision (PerkinElmer) plate reader at an excitation of 540 nm and emission at 573 nm. […] At the highest concentration of 25 μM, which is near its biological activity in tumor cells, 60% blockage is detected.

[4] = system: salmon sperm DNA; experiment: Fluorescent Intercalator Displacement assay (ethidium bromide); format: binding; parameters: displacement of ethidium bromide: dose or concentration left out as unconfirmed; conditions: for displacement of ethidium bromide: […] μM; for DNA binding: three concentrations tested
Protocol: Finally, DNA binding by these three compounds was assessed. DNA binding is often a reflection of non-specificity, which can lead to adverse side effects. The well-established Fluorescent Intercalator Displacement assay by Tse et al.^43 that measures displacement of ethidium bromide, a known intercalator of DNA was used. In this assay, ethidium bromide (EB) bound to the salmon sperm DNA.

T1 sequence (Q12809 whole entry): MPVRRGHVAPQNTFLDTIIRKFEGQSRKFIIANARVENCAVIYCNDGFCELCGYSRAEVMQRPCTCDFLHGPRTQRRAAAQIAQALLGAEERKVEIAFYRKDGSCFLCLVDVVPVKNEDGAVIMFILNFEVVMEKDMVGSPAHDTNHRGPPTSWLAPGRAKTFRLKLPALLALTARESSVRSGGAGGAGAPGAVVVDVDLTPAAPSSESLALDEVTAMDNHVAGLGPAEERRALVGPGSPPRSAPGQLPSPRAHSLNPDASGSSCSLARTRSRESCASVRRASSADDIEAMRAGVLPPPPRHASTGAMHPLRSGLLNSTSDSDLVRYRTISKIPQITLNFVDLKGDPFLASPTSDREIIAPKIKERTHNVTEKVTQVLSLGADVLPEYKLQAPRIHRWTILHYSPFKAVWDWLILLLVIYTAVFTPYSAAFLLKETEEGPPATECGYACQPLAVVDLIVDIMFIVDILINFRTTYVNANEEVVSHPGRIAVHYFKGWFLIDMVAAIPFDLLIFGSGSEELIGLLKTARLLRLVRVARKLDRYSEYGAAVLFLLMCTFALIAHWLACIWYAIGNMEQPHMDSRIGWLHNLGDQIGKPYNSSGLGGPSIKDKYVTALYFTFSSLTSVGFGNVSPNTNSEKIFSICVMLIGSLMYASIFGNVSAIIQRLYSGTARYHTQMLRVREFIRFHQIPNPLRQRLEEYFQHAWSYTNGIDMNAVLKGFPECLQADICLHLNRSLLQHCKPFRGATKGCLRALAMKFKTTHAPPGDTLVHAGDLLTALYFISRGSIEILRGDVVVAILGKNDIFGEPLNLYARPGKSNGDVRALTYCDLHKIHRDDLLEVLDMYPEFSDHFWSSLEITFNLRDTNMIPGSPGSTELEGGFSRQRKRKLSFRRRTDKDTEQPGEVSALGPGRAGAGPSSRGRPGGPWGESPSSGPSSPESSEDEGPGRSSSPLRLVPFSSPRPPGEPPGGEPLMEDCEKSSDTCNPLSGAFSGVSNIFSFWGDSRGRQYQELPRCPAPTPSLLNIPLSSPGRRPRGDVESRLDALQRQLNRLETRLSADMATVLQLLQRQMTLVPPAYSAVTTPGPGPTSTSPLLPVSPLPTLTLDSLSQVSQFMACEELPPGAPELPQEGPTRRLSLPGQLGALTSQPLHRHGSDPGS

SMILES	IC50 [1] [µM]	effect on MAPK phosphorylation [2]	hERG blockage ([3]; […] μM) [%]	displacement of ethidium bromide [4]	DNA binding [4]	hERG channel blockage ([3]; 1, 10 and […] μM)
Cc1cc(C)cc(NC(=O)c2cnn(-c3ccc(C(C)C)cc3)c2C2CCNCC2)c1 [IPR-69, N-(3,5-dimethylphenyl)-1-(4-isopropylphenyl)-5-(piperidin-4-yl)-1H-pyrazole-4-carboxamide]	30	abrogated phosphorylation, but the effects were weaker than IPR-9	60	less than 10%	not strongly affected; also recorded: no DNA binding	–
CN(C)c1ccc(CNCCC(Cc2ccccc2)c2ccc3c(c2)OCO3)cc1 (racemic) [IPR-9, 4-(((3-(benzo[d][1,3]dioxol-5-yl)-4-phenylbutyl)amino)methyl)-N,Ndimethylaniline]	30	significant impairment	–	30%	not strongly affected	even greater hERG K^+ channel blockage than the well-known channel blocker E-4031
